Measured values taken from patent US11117901B2, “Substituted pyrazolo[4,3-h]quinazolines as choline kinase inhibitors” (NERVIANO MEDICAL SCIENCES S.R.L., priority 2017, dated 2021).

Assays:
Δ49N-hChoKα = molecular target: T1, Δ49N-hChoKα (Homo sapiens, UniProt P35790); assay: Biochemical kinase inhibition assay (Kinase-Glo luminescent) on Δ49N-hChoKα; conditions: recombinant Δ49N-hChoKα 2.2 nM, ATP 5 μM, choline 5 μM, 60 min rt; read-out: ChoKα IC50
T1 construct: cDNA fragment 362-1534, corresponding to aminoacids 50 457; GST (N, cleaved yes); PreScission Protease recognition site (N); made in house; host or cells: Escherichia coli BL21pLysS (DE3)
T1 sequence (P35790 50-439 isoform P35790-2): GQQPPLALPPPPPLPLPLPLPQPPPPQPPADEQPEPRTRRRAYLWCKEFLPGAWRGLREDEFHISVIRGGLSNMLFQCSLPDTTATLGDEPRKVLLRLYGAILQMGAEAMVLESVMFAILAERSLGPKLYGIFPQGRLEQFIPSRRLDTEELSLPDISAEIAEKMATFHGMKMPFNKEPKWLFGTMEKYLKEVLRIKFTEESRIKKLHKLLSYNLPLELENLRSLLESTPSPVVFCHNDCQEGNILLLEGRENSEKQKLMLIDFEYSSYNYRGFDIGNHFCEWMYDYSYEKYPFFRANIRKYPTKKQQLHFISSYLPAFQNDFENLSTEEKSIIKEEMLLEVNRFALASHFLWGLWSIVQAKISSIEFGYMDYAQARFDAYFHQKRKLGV
Outline: (§1)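 Kinase-Glo residual-ATP luminescence with in-house E. coli-expressed, tag-cleaved enzymes: Δ49N-hChoKα 2.2 nM with 5 μM choline; hChoKβ FL 30 nM with 20 μM choline. Both used 5 μM ATP, 60 min at room temperature, 1% DMSO, pH 7.5 Hepes buffer. IC50 from 4-parameter fits of ten 3-fold dilutions from 10 μM.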

hChoKβ FL = molecular target: T2, hChoKβ FL (Homo sapiens, UniProt Q9Y259); assay: Biochemical kinase inhibition assay (Kinase-Glo luminescent) on hChoKβ FL; conditions: recombinant hChoKβ FL 30 nM, ATP 5 μM, choline 20 μM, 60 min rt; read-out: ChoKβ IC50
T2 construct: hChoKβ full length (FL), corresponding to aminoacids 2-395; GST (N, cleaved yes); PreScission Protease recognition site (N); made in house; host or cells: Escherichia coli BL21pLysS (DE3)
T2 sequence (Q9Y259 2-395): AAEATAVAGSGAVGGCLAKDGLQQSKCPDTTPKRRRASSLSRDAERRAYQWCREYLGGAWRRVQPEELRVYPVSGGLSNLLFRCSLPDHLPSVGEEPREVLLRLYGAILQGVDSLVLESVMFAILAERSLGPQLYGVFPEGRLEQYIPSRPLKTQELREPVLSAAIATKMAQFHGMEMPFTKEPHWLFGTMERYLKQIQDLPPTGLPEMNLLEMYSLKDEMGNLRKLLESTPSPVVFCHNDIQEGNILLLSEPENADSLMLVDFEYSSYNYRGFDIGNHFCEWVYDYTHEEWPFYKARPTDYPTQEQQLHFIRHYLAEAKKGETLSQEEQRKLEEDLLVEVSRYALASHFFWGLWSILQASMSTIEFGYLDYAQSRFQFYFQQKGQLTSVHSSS
Outline: as §1

[1] = tested on: [Phosphocholine] in MDA-MB-468 cell supernatants; assay: Phosphocholine determination in cell culture medium (supernatants); assay type: cell-based; conditions: Homo sapiens, 24 h treatment, vs untreated control
Procedure: (§2) For the determination of phosphocholine in cells, extracts were prepared according to ref. Cancer Res., 2005, 65, 9369-9376 with some modifications. MDA-MB-468 breast cancer cell line was plated at 1×10^6 cells in 10 cm petri dish culture in RPMI, 10% FCS culture medium. After 24 h, fresh medium and a compound of general formula (I) were added for further 24 h. At the end of the treatment, the cells were trypsinised, counted and the diameter was determined using a Coulter Counter (Multisizer 3, Beckman). Cells were washed twice with ice-cold physiologic saline solution and 2×10^6 cells resuspended in 0.3 mL ice-cold twice-distilled water. Then, 0.7 mL ice-cold absolut EtOH were added (final ratio EtOH/H2O 70:30, v/v). After 24 h at −20° C. the samples were sonicated and centrifuged at 14,000×g for 30 minutes.
Phosphocholine concentration levels were assessed in the supernatants using an Ultra High Pressure Liquid Chromatography system (UPLC®, Waters) coupled with a triple quadrupoles mass spectrometer (TQD, Waters) operating in single reaction monitoring mode (SRM). Analyses were performed using Acquity HSS T3 column 2.1×50 mm column, 1.8 μm particle size. Mobile phase A was H2O, modified with 0.15% formic acid, and mobile phase B was MeOH (100% A→97% A over 1 min, flow rate 0.5 mL/min). Waters TQD triple quad mass spectrometer was equipped with an electrospray ion source operating in the positive mode. Source parameters were set as follows: desolvation gas flow 1000 L/h, cone gas flow 50 L/h; collision gas flow 0.2 mL/min; source temperature 130° C.; desolvation temperature 450° C. […] The monitored transitions were m/z 184.00 to 85.7 (collision energy 24 eV) for phosphocholine and m/z 103.0 to 57.5 (collision energy 13 eV) for DMG. […]
For the determination of phosphocholine in cell culture medium, cell culture supernatants (500 μL) were denatured by adding 100 μL of trichloroacetic acid (TCA) 1M containing dimethyl glicine (DMG) (100 μM), used as internal standard. […] The supernatants were subsequently analyzed for phosphocholine determination. […]

[2] = tested on: [Phosphocholine] in MDA-MB-468 cell extracts; assay: Phosphocholine determination assay in cell extracts (target inhibition in cells); assay type: cell-based; conditions: Homo sapiens, 24 h treatment, vs untreated control
Procedure: as §2
Phosphocholine concentration levels were assessed in the supernatants using an Ultra High Pressure Liquid Chromatography system (UPLC®, Waters) coupled with a triple quadrupoles mass spectrometer (TQD, Waters) operating in single reaction monitoring mode (SRM). Analyses were performed using Acquity HSS T3 column 2.1×50 mm column, 1.8 μm particle size. Mobile phase A was H2O, modified with 0.15% formic acid, and mobile phase B was MeOH (100% A→97% A over 1 min, flow rate 0.5 mL/min). Waters TQD triple quad mass spectrometer was equipped with an electrospray ion source operating in the positive mode. Source parameters were set as follows: desolvation gas flow 1000 L/h, cone gas flow 50 L/h; collision gas flow 0.2 mL/min; source temperature 130° C.; desolvation temperature 450° C. Dimethyl glicine (DMG) was added to samples as internal standard at 100 μM final concentration. The monitored transitions were m/z 184.00 to 85.7 (collision energy 24 eV) for phosphocholine and m/z 103.0 to 57.5 (collision energy 13 eV) for DMG. The concentration of PCho in the sample was normalized to the total volume of cells (number cells×volume of single cell considered like a sphere).
As an example, the mechanism of action of cpd 39 is reported in Table 2 (Control refers to untreated cells).

Structure (SMILES) | IC50 (Δ49N-hChoKα) | IC50 (hChoKβ FL) | other results
Cc1csc(NC(=O)c2nn(CCO)c3c2C(C)(C)Cc2cnc(N)nc2-3)n1 [compound 182] | 458 nM | > 10000 nM | 
CC1(C)Cc2cnc(N)nc2-c2[nH]nc(C(=O)Nc3nc(COC4CCN(C5CCC(F)(F)CC5)CC4)cs3)c21 [compound 189] | 31 nM | 1560 nM | 
CC1(C)CCC(N2CCC(OCc3csc(NC(=O)c4n[nH]c5c4C(C)(C)Cc4cnc(N)nc4-5)n3)CC2)CC1 [compound 190] | 8 nM | 546 nM | 
CC1(C)Cc2cnc(N)nc2-c2[nH]nc(C(=O)Nc3nc(COC4CCN(C5CCCCCC5)CC4)cs3)c21 [compound 209] | 5 nM | 230 nM | 
CC1(C)Cc2cnc(N)nc2-c2[nH]nc(C(=O)Nc3nc(COC4CCN(CC5CCCCC5)CC4)cs3)c21 [compound 212] | 8 nM | 457 nM | 
CC1(C)Cc2cnc(N)nc2-c2[nH]nc(C(=O)Nc3nc(COC4CCN(Cc5ccccc5)CC4)cs3)c21 [compound 213] | 16 nM | 450 nM | 
Cn1nc(C(=O)Nc2nc(COC3CCN(C4CCCCCC4)CC3)cs2)c2c1-c1nc(N)ncc1CC2(C)C [compound 217] | 18 nM | 3550 nM | 
CC(C)=CC(=O)CC(C)(C)NC(=O)Cc1csc(NC(=O)c2n[nH]c3c2C(C)(C)Cc2cnc(N)nc2-3)n1 [compound 220] | 30 nM | 1380 nM | 
CC1(C)CCC(N2CCC(OCc3csc(NC(=O)c4n[nH]c5c4C(C)(C)Cc4cnc(N)nc4-5)n3)CC2)CC1 [compound 221] | 10 nM | 782 nM | 
CC1(C)Cc2cnc(N)nc2-c2[nH]nc(C(=O)Nc3nc(CC(=O)N4CCC(N5CCCC(F)(F)C5)CC4)cs3)c21 [compound 222] | 10 nM | 1650 nM | 
CC1(C)Cc2cnc(N)nc2-c2[nH]nc(C(=O)Nc3nc(COC4CCN(C5CCCCCC5)CC4)cs3)c21 [compound 223] | 4 nM | 184 nM | 
CC1CCN(C2CCN(C(=O)Cc3csc(NC(=O)c4nn(C)c5c4CC(C)(C)c4cnc(N)nc4-5)n3)CC2)CC1 [compound 225] | 9 nM | 2260 nM | 
CC1(OCc2csc(NC(=O)c3n[nH]c4c3C(C)(C)Cc3cnc(N)nc3-4)n2)CCN(C2CCCCCC2)CC1 [compound 226] | 20 nM | 376 nM | 
CC1CCN(C2(C)CCN(C(=O)Cc3csc(NC(=O)c4n[nH]c5c4C(C)(C)Cc4cnc(N)nc4-5)n3)CC2)CC1 [compound 227] | 2 nM | 26 nM | 
CC1(C)Cc2cnc(N)nc2-c2[nH]nc(C(=O)Nc3nc(COC4CCN(C5CCC6(CC5)CC6)CC4)cs3)c21 [compound 230] | 24 nM | 594 nM | 
CC1(C)Cc2c(C(=O)Nc3nc(COC4CCN(C5CCCCCC5)CC4)cs3)n[nH]c2-c2nc(N)ncc21 [compound 232] | 8 nM | 146 nM | 

Continued, in another order:

IC50 (Δ49N-hChoKα) | IC50 (hChoKβ FL) | Structure (SMILES) | other results
2 nM | 84 nM | CC1(C)Cc2cnc(N)nc2-c2[nH]nc(C(=O)Nc3nc(CC(=O)N4CCC(N5CCCCC5)CC4)cs3)c21 [compound 39] | inhibition at 0.08 µM ([1]; 0.08 μM compound): 42%; inhibition at 0.4 µM ([1]; 0.4 μM compound): 85%; inhibition at 2 µM ([1]; 2 μM compound): 88%; inhibition at 0.08 µM ([2]; 0.08 μM compound): 35%; inhibition at 0.4 µM ([2]; 0.4 μM compound): 87%; inhibition at 2 µM ([2]; 2 μM compound): 98%
17 nM | 887 nM | CC1CCN([C@H]2CC[C@H](OCc3csc(NC(=O)c4n[nH]c5c4C(C)(C)Cc4cnc(N)nc4-5)n3)CC2)CC1 [compound 170] | 
13 nM | 654 nM | CC1(C)Cc2cnc(N)nc2-c2[nH]nc(C(=O)Nc3nc(C(F)(F)C(=O)N4CCC(N5CCCCC5)CC4)cs3)c21 [compound 183] | 
7 nM | 303 nM | CC1CCN(C2CCN(C(=O)C(F)(F)c3csc(NC(=O)c4n[nH]c5c4C(C)(C)Cc4cnc(N)nc4-5)n3)CC2)CC1 [compound 191] | 
108 nM | > 10000 nM | CC1CCN(C2CCN(C(=O)Cc3csc(NC(=O)c4c5c(nn4C)-c4nc(N)ncc4CC5(C)C)n3)CC2)CC1 [compound 211] | 
2 nM | 254 nM | CC1(C)CCN(C2CCN(C(=O)Cc3csc(NC(=O)c4n[nH]c5c4C(C)(C)Cc4cnc(N)nc4-5)n3)CC2)CC1 [compound 218] | 
2 nM | 296 nM | CC1(C)CCCN(C2CCN(C(=O)Cc3csc(NC(=O)c4n[nH]c5c4C(C)(C)Cc4cnc(N)nc4-5)n3)CC2)C1 [compound 219] | 
5 nM | 213 nM | CC1CCCN(C2CCN(C(=O)Cc3csc(NC(=O)c4n[nH]c5c4C(C)(C)Cc4cnc(N)nc4-5)n3)CC2)C1 (stereo not drawn) [compound 224] | 
9 nM | 963 nM | CC1CCN(C2CCN(C(=O)c3ccc4nc(NC(=O)c5n[nH]c6c5C(C)(C)Cc5cnc(N)nc5-6)sc4c3)CC2)CC1 [compound 228] | 
18 nM | 840 nM | CC1(C)Cc2cnc(N)nc2-c2[nH]nc(C(=O)Nc3nc(CC(=O)N4CCC(N5CCC(F)(F)CC5)CC4)cs3)c21 [compound 229] | 
3 nM | 104 nM | CC1CCN(C2CCN(C(=O)Cc3csc(NC(=O)c4n[nH]c5c4CC(C)(C)c4cnc(N)nc4-5)n3)CC2)CC1 [compound 231] | 
